What was measured:
[1] = biological target: Sigma non-opioid intracellular receptor 1 (Rattus norvegicus, UniProt Q9R0C9); experiment: Displacement of [3H](+)-pentazocine from sigma1 receptor in rat brain homogenate; format: tissue-based
Histamine H3 receptor [2] = biological target: T1, Histamine H3 receptor (Homo sapiens, UniProt Q9Y5N1); experiment: Inhibition of H3 receptor
[3] = Displacement of [3H]DTG from sigma2 receptor in […]; format: cell-based; settings: pc-12
[4] = biological target: T2, Sodium-dependent dopamine transporter (Homo sapiens, UniProt Q01959); experiment: Inhibition of DAT at 10 uM
T2 sequence (Q01959 whole entry): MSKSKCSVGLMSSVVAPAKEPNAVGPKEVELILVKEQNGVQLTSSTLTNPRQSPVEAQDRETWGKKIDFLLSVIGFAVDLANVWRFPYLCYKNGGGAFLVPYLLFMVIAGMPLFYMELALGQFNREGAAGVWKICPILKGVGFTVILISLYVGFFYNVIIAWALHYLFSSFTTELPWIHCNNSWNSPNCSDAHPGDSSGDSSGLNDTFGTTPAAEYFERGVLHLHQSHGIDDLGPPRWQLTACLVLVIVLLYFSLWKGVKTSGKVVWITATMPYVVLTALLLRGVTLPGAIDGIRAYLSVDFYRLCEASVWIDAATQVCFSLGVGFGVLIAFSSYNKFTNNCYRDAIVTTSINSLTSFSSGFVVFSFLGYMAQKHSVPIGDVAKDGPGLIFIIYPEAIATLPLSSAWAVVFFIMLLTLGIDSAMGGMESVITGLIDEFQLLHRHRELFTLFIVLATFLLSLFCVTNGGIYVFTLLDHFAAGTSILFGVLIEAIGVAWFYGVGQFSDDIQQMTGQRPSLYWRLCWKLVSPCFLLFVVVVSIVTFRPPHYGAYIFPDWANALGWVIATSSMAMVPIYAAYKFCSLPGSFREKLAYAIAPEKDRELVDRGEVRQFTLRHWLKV

D(2) dopamine receptor = D(2) dopamine receptor (Homo sapiens, UniProt P14416); experiment: Inhibition of D2 dopamine receptor
Sequence of D(2) dopamine receptor (P14416 whole entry): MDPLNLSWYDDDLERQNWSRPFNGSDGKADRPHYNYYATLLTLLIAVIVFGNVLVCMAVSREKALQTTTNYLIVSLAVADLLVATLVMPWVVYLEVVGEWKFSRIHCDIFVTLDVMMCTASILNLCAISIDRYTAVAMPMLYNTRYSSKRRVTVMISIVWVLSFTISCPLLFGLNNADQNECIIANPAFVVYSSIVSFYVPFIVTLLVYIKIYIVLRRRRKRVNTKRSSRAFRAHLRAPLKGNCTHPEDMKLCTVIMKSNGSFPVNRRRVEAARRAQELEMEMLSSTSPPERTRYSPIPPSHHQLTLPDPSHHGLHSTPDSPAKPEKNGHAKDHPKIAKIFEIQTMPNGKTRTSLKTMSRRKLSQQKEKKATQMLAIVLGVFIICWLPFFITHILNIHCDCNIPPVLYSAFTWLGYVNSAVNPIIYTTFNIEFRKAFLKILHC

[5] = Inhibition of NMDA receptor PCP binding site at 10 uM
[6] = biological target: Sodium-dependent noradrenaline transporter (Homo sapiens) (UniProt P23975); experiment: Inhibition of NET at 10 uM
Sequence of Sodium-dependent noradrenaline transporter (Homo sapiens) (P23975 whole entry): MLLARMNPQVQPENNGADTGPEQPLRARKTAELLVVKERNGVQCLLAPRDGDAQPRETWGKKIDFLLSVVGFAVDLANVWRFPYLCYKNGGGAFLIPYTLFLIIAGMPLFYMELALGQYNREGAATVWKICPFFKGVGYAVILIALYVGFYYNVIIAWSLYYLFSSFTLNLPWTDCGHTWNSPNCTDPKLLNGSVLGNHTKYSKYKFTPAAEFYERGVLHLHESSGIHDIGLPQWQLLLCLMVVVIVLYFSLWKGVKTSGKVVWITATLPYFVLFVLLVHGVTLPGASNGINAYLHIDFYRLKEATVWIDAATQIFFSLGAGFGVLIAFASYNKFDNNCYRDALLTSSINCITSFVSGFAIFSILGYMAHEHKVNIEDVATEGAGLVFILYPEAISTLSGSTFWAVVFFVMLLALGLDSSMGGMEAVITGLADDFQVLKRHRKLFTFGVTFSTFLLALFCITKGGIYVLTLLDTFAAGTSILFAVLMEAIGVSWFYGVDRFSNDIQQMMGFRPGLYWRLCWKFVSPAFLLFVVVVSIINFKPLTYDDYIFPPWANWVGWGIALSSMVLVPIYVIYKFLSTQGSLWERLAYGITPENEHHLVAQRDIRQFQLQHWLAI

Histamine H3 receptor [7] = biological target: T1, Histamine H3 receptor; experiment: Inhibition of H3 receptor at 10 uM
[8] = biological target: Sodium-dependent serotonin transporter (Homo sapiens, UniProt P31645); experiment: Inhibition of SERT
Sequence of Sodium-dependent serotonin transporter (P31645 whole entry): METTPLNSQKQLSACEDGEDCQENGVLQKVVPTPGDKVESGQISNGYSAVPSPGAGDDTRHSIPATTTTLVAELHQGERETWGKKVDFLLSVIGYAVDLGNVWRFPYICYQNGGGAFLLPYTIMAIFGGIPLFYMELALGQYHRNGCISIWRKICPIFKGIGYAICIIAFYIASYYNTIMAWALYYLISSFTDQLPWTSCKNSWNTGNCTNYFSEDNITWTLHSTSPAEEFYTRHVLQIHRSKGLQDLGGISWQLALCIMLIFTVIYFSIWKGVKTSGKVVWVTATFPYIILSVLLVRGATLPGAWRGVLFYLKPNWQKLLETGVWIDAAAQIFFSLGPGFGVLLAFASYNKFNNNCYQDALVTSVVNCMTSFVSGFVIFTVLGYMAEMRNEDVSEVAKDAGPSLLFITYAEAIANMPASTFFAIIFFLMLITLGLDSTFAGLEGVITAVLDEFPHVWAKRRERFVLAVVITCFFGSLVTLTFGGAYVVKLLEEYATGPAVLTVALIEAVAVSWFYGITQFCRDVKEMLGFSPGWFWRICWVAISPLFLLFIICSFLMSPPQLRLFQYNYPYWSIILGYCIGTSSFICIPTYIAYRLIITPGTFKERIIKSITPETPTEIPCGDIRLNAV

[9] = biological target: T2, Sodium-dependent dopamine transporter; experiment: Inhibition of DAT
D(1B) dopamine receptor = D(1B) dopamine receptor (Homo sapiens, UniProt P21918); experiment: Inhibition of D5 dopamine receptor at 10 uM
Sequence of D(1B) dopamine receptor (P21918 whole entry): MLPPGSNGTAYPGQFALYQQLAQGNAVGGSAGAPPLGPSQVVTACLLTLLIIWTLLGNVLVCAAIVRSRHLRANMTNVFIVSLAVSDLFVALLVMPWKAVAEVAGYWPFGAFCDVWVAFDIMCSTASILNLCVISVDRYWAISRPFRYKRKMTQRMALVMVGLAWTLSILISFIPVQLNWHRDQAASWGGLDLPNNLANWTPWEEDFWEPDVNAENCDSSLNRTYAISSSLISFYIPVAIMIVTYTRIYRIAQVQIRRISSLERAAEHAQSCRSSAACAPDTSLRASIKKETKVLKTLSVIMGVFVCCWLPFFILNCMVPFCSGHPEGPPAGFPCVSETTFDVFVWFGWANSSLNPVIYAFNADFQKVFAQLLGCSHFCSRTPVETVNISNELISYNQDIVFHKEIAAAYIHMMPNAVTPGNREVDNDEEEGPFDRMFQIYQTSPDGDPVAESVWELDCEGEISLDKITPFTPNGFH

PC-12 = experiment: Displacement of [3H]DTG from sigma2 receptor in […] at 10 uM; format: cell-based

T1 sequence (Q9Y5N1 whole entry): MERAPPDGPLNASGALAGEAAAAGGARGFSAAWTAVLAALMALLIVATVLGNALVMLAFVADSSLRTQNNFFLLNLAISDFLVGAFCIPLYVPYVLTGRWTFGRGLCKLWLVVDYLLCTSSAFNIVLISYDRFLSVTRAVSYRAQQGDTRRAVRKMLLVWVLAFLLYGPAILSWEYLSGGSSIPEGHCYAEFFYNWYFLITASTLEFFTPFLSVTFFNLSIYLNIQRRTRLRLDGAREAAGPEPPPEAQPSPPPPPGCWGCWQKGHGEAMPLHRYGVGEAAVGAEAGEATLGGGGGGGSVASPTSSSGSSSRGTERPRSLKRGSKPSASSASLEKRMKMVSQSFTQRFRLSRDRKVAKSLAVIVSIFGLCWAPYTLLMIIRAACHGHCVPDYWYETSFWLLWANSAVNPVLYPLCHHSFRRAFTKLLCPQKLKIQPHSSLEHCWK
Sequence of Sigma non-opioid intracellular receptor 1 (Q9R0C9 whole entry): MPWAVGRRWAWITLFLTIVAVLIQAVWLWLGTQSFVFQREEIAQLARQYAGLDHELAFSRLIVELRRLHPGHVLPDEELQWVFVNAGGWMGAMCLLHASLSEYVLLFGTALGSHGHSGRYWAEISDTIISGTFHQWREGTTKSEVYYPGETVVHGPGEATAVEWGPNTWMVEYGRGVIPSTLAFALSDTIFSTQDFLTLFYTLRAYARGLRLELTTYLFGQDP

Structure (SMILES)	Ki [1]	Ki (Histamine H3 receptor [2])	Ki [3]	inhibition [4]	Ki (D(2) dopamine receptor)	inhibition [5]	inhibition [6]	inhibition (Histamine H3 receptor [7])	Ki [8]	Ki [9]	inhibition (D(1B) dopamine receptor)	inhibition (PC-12)
c1ccc(CCN2C3CCC2CC3)cc1	0.276 µM	7.77 µM	0.131 µM	< 50%	> 1 µM	< 50%	< 50%	–	–	–	–	–
Fc1cccc(CN2C3CCC2CC3)c1	–	–	0.251 µM	< 50%	> 10 µM	< 50%	< 50%	< 50%	> 10 µM	–	–	–
c1cncc(CN2C3CCC2CC3)c1	–	–	6.35 µM	< 50%	> 10 µM	< 50%	< 50%	< 50%	–	–	–	–
c1ccc(CCN2CCCC2)cc1	–	–	0.658 µM	–	–	< 50%	< 50%	–	> 10 µM	2.73 µM	–	–
c1ccc(CN2CCCC2)cc1	–	–	0.852 µM	< 50%	–	< 50%	< 50%	–	> 10 µM	–	< 50%	–
Fc1cccc(CCN2CCCC2)c1	–	–	0.246 µM	–	> 10 µM	< 50%	< 50%	–	> 10 µM	2.31 µM	–	–
Fc1cccc(CCCN2CCCC2)c1	–	–	0.039 µM	–	9.91 µM	< 50%	< 50%	–	4.36 µM	3.31 µM	–	–
c1ccc(CN2C3CCC2CC3)cc1	–	–	0.399 µM	< 50%	> 10 µM	< 50%	< 50%	–	> 10 µM	–	–	–
COc1ccc(CN2CCCC2)cc1OC	–	–	0.661 µM	< 50%	–	< 50%	< 50%	–	> 10 µM	–	–	–
Fc1cccc(CCCN2C3CCC2CC3)c1	0.12 µM	–	0.0119 µM	< 50%	> 10 µM	< 50%	< 50%	< 50%	–	–	–	–
c1ccc(CCN2CCCC2)nc1	–	–	3.52 µM	< 50%	> 10 µM	< 50%	< 50%	–	> 10 µM	–	–	–
Fc1cccc(CN2CCCC2)c1	–	–	1.61 µM	< 50%	–	< 50%	< 50%	–	> 10 µM	–	–	–
c1cncc(CN2CCCC2)c1	–	–	–	< 50%	–	< 50%	< 50%	–	> 10 µM	–	–	< 50%
Fc1cccc(CCN2C3CCC2CC3)c1	0.103 µM	–	0.0295 µM	< 50%	> 10 µM	< 50%	< 50%	< 50%	–	–	–	–
c1ccc(CCN2C3CCC2CC3)nc1	3.83 µM	–	0.517 µM	< 50%	> 10 µM	< 50%	< 50%	< 50%	–	–	–	–
COc1ccc(CN2C3CCC2CC3)cc1OC	–	–	0.0431 µM	< 50%	> 10 µM	< 50%	< 50%	< 50%	> 10 µM	–	–	–

From ChEMBL document CHEMBL2029272, “7-Azabicyclo[2.2.1]heptane as a scaffold for the development of selective sigma-2 (σ2) receptor ligands” (Bioorg Med Chem Lett, 2012)
